Measurements: patent US12486284B2, “Ubiquitin-specific protease inhibitor and preparation method therefor and use thereof” (CHASER THERAPEUTICS, INC., priority 2019, dated 2025)
pIC50: −log10 of the molar value. Where two headings read alike, the source gives them in different places.

How the values were obtained:
USP28 = target: T1, USP28 (Homo sapiens, UniProt Q96RU2); test: USP28 activity measured using ubiquitin-rhodamine 110 method; format: biochemical; conditions: for pIC50: purified USP28 4 nM, ubiquitin-rhodamine 110 125 nM, 30 min preincubation; for IC50(F)/IC50(E) USP28: ratio of IC50 of related 3-NH2 compound (F) to IC50 of 3-NHMe compound disclosed herein (E)
T1 construct: purchased R&D Systems
T1 sequence (Q96RU2 1-1077): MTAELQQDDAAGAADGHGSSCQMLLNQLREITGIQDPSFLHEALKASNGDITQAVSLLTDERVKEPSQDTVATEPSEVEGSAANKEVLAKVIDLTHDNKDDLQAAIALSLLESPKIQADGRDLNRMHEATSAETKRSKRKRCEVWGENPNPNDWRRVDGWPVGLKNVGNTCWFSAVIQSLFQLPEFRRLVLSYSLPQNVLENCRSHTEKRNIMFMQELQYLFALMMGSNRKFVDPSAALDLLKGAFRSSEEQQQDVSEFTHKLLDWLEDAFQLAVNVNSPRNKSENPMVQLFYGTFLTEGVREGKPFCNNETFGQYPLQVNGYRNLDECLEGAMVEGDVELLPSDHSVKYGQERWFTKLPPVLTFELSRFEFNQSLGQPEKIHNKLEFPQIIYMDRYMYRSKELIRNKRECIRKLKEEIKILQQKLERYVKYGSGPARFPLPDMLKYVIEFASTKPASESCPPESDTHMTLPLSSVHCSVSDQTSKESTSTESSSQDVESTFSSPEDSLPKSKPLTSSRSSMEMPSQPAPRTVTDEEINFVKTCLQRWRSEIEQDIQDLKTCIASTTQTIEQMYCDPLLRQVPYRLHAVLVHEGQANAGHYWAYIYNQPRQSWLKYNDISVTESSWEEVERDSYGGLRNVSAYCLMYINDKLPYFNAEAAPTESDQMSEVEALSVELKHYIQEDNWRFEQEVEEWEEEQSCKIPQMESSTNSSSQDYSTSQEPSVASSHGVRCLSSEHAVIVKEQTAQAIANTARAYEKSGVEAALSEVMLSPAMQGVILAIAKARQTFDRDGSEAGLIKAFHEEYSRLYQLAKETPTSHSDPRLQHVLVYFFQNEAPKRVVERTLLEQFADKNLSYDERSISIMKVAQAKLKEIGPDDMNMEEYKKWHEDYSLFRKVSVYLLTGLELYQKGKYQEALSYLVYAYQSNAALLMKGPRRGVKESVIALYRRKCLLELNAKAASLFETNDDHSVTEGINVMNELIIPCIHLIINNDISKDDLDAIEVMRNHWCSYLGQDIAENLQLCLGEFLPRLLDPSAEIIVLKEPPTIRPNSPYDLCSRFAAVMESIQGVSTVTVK
Method: USP28 activity was measured using ubiquitin-rhodamine 110 method.
(§1) Purified USP28 and the ubiquitin-rhodamine 110 substrate used for measuring DUBs activity were both from R&D Systems. Test compounds were first dissolved in DMSO to prepare a 10 mM stock solution, and then the stock solution was diluted with a buffer solution [containing 20 mM Tris-HCl (pH 8.0), 2 mM CaCl2), 3 mM BME, 0.01% Prionix, 0.01% Triton X-100] to the desired concentration (with DMSO content less than or equal to 0.5%). The dilution was mixed well with USP28 (final concentration 4 nM) in a 96-well plate and incubated at room temperature for 30 min, and then added with the substrate (ubiquitin-rhodamine 110) to 125 nM. The final volume of the whole reaction system was 20 μL. The released fluorescence (excitation wavelength 485 nm, emission wavelength 535 nm) was detected immediately on a microplate reader after the addition of the substrate. The inhibitory rate of the test compound against USP28 was calculated according to the following formula: Inhibition %=1−[(test compound+fluorescence value of substrate−fluorescence value of test compound (no substrate))/mean fluorescence value of DMSO control group−fluorescence value of test compound (no substrate)]
According to the inhibitory rates of the test compound against USP28 under different concentrations, IC50 was calculated.

USP25 = target: T2, USP25 (Homo sapiens, UniProt Q9UHP3); test: USP25 activity measured using ubiquitin-rhodamine 110 method; format: biochemical; conditions: for pIC50: purified USP25 15 nM, ubiquitin-rhodamine 110 125 nM, 30 min preincubation; for IC50(F)/IC50(E) USP25: ratio of IC50 of related 3-NH2 compound (F) to IC50 of 3-NHMe compound disclosed herein (E)
T2 construct: purchased R&D Systems
T2 sequence (Q9UHP3 1-1055): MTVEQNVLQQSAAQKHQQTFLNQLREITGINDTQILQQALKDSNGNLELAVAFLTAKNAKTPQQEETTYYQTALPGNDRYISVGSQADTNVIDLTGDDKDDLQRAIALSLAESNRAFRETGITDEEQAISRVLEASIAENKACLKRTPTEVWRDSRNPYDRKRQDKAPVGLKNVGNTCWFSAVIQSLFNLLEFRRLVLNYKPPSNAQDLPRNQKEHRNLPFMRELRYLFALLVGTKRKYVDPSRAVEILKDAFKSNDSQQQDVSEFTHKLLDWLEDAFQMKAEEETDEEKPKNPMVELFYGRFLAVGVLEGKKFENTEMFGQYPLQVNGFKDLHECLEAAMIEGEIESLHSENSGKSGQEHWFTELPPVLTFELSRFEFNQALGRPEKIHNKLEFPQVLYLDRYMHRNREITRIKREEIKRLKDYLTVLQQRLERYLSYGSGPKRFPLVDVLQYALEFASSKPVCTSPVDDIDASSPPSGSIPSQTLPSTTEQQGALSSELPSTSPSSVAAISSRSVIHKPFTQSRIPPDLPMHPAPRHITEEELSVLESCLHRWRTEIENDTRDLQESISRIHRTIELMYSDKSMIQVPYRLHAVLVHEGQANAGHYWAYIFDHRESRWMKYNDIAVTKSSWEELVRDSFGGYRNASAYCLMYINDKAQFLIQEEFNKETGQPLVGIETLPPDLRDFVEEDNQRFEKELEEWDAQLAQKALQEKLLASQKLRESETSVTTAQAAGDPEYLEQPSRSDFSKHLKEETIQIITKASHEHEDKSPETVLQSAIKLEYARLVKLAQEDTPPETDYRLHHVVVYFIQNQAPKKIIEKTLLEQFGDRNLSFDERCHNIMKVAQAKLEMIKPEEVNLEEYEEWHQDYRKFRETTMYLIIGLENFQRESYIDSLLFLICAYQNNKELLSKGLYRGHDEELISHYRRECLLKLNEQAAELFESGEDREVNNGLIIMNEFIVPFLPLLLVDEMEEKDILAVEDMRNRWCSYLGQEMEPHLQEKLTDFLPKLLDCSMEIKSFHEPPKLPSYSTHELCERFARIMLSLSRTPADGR
Method: USP25 activity was measured using ubiquitin-rhodamine 110 method.
as §1, with “Purified USP25” for “Purified USP28”, “with USP25” for “with USP28”, “concentration 15” for “concentration 4”, “the substrate, and the” for “the substrate. The”, “against USP25” for “against USP28”
As in Example 11, according to the inhibitory rates of the test compound against USP25 under different concentrations, IC50 was calculated.

[1] = read-out: Inhibitory activity against USP28 (IC50)
[2] = read-out: Inhibitory activity against USP25 (IC50)
[3] = Inhibitory activity against USP28 (IC50)
[4] = Inhibitory activity against USP25 (IC50)

| SMILES | pIC50 (USP28; [1]) | pIC50 (USP25; [2]) | IC50(F)/IC50(E) USP28 (USP28) | IC50(F)/IC50(E) USP25 (USP25) | pIC50 (USP28; [3]) | pIC50 (USP25; [4]) |
| --- | --- | --- | --- | --- | --- | --- |
| CNc1c(C(=O)NCCc2c[nH]c3ccccc23)sc2nc(C(F)(F)F)ccc12 [Compound I-54] | > 7.00 | 5.00 to 5.30 | – | – | – | – |
| CNc1c(C(=O)N[C@H](COC)Cc2c[nH]c3ccccc23)sc2nc(C)ccc12 [Compound I-55] | 5.30 to 6.00 | < 5.00 | – | – | – | – |
| CNc1c(C(=O)NCCc2coc3ccccc23)sc2nc(C)ccc12 [Compound I-56] | 6.00 to 7.00 | 5.30 to 6.00 | – | – | – | – |
| CNc1c(C(=O)NCCc2csc3ccccc23)sc2nc(C)ccc12 [Compound I-57] | > 7.00 | 5.00 to 5.30 | – | – | – | – |
| CNc1c(C(=O)NCCc2ccc(OC)c(OC)c2)sc2nc(C)ccc12 [Compound I-58] | 6.00 to 7.00 | < 5.00 | 5.0 | >8 | – | – |
| CCc1nc2sc(C(=O)NCCc3ccc(OC)c(OC)c3)c(NC)c2c(C(F)(F)F)c1C [Compound I-59] | > 7.00 | 5.30 to 6.00 | – | – | – | – |
| CNc1c(C(=O)NCCc2ccc(OC)c(OC)c2)sc2nc(C)cc(C)c12 [Compound I-60] | > 7.00 | 5.00 to 5.30 | – | – | – | – |
| CNc1c(C(=O)N[C@@H](C)Cc2ccc(Br)cc2)sc2nc(C)ccc12 [Compound I-61] | 5.30 to 6.00 | < 5.00 | – | – | – | – |
| CNc1c(C(=O)N[C@H](C)Cc2ccc(Br)cc2)sc2nc(C)ccc12 [Compound I-62] | 6.00 to 7.00 | < 5.00 | – | – | – | – |
| CNc1c(C(=O)N[C@@H](C)Cc2ccc(N3C[C@H]4CC[C@@H](C3)N4)cc2)sc2nc(C)ccc12 [Compound I-63] | 6.00 to 7.00 | < 5.00 | – | – | – | – |
| CNc1c(C(=O)N[C@H](C)Cc2ccc(N3C[C@H]4CC[C@@H](C3)N4)cc2)sc2nc(C)ccc12 [Compound I-64] | – | 6.00 to 7.00 | – | – | > 7.00 | – |
| CNc1c(C(=O)N[C@H](COC)Cc2ccc(N3C[C@H]4CC[C@@H](C3)N4)cc2)sc2nc(C)ccc12 [Compound I-65] | 6.00 to 7.00 | 5.00 to 5.30 | – | – | – | – |
| CNc1c(C(=O)N[C@@H](Cc2ccc(N3C[C@H]4CC[C@@H](C3)N4)cc2)C(F)(F)F)sc2nc(C)ccc12 [Compound I-66] | 6.00 to 7.00 | 6.00 to 7.00 | – | – | – | – |
| CNc1c(C(=O)NC[C@H](C)c2ccc(N3C[C@H]4CC[C@@H](C3)N4)cc2)sc2nc(C)ccc12 [Compound I-67] | 6.00 to 7.00 | 6.00 to 7.00 | – | – | – | – |
| CNc1c(C(=O)NC[C@@H](C)c2ccc(N3C[C@H]4CC[C@@H](C3)N4)cc2)sc2nc(C)ccc12 [Compound I-68] | 6.00 to 7.00 | 6.00 to 7.00 | – | – | – | – |
| CNc1c(C(=O)NC[C@@H](F)c2ccc(N3C[C@H]4CC[C@@H](C3)N4)cc2)sc2nc(C)ccc12 [Compound I-69] | – | 6.00 to 7.00 | – | – | > 7.00 | – |
| CNc1c(C(=O)NCCc2ccc(N3C[C@H]4CC[C@@H](C3)N4)cc2)sc2nccnc12 [Compound I-70] | 5.30 to 6.00 | < 5.00 | – | – | – | – |
| CNc1c(C(=O)NCCc2ccc(N3C[C@H]4CC[C@@H](C3)N4)cc2)sc2nc(C)cnc12 [Compound I-71] | – | 5.00 to 5.30 | – | – | > 7.00 | – |
| CCc1cnc2c(NC)c(C(=O)NCCc3ccc(N4C[C@H]5CC[C@@H](C4)N5)cc3)sc2n1 [Compound I-72] | – | 6.00 to 7.00 | – | – | > 7.00 | – |
| CNc1c(C(=O)NCCc2ccc(N3CC4CCC(C3)N4)cc2)sc2nc(C(C)C)cnc12 [Compound I-73] | – | 6.00 to 7.00 | – | – | > 7.00 | – |
| CCc1nc2sc(C(=O)NCCc3ccc(N4C[C@H]5CC[C@@H](C4)N5)cc3)c(NC)c2nc1C [Compound I-74] | – | – | – | – | > 7.00 | > 7.00 |
| CNc1c(C(=O)NCCc2ccc(N3C[C@H]4CC[C@@H](C3)N4)c(Cl)c2)sc2nc(C)cnc12 [Compound I-75] | – | – | – | – | > 7.00 | > 7.00 |
| CNc1c(C(=O)NCCc2ccc(N3C[C@H]4CC[C@@H](C3)N4)c(F)c2)sc2nc(C)cnc12 [Compound I-76] | – | – | 33.3 | >20 | > 7.00 | > 7.00 |
| CNc1c(C(=O)NCCc2ccc(N3C[C@H]4CC[C@@H](C3)N4)cc2F)sc2nc(C)cnc12 [Compound I-77] | – | – | – | – | > 7.00 | > 7.00 |
| CNc1c(C(=O)NCCc2cc(F)c(N3C[C@H]4CC[C@@H](C3)N4)cc2F)sc2nc(C)cnc12 [Compound I-78] | – | – | – | – | > 7.00 | > 7.00 |
| CNc1c(C(=O)NC[C@H](C)c2cc(F)c(N3C[C@H]4CC[C@@H](C3)N4)cc2F)sc2nc(C)cnc12 [Compound I-79] | – | 6.00 to 7.00 | – | – | > 7.00 | – |
| CNc1c(C(=O)NCCc2ccc(N3C[C@H]4CC[C@@H](C3)N4)cc2)sc2nc(C#N)ccc12 [Compound I-80] | 5.30 to 6.00 | 5.30 to 6.00 | – | – | – | – |
| CNc1c(C(=O)NCCc2ccc(N3C[C@H]4CC[C@@H](C3)N4)cc2F)sc2nc(Cl)cnc12 [Compound I-81] | 5.30 to 6.00 | < 5.00 | – | – | – | – |
